The text below walks through data of patent publication US20110020448A1, “PHARMACEUTICAL COMPOSITION FOR THE TREATMENT AND PREVENTION OF GLAUCOMA” (MAZENCE, INC., priority 2007, published 2011).

Assay [1] relates to retinal ganglion cells. The assay can be described thus: Viability of retinal ganglion cells (RGCs) in TTT laser optic nerve injury (glaucoma) model. Type of assay: in vivo, C57BL/6 mice. Particulars: TTT laser model mice, rodent chow containing 50 mg/kg, fed 2 weeks; RGCs labeled day 13, counted 24 h later; FIG. 1. As for the experimental part: (§1) Group 3: Experimental group (n=7) fed with a rodent chow containing 50 mg/kg of a pharmaceutical composition including compound 1 of experimental example 1 as an active ingredient, as a glaucoma model.
(§2) 8-week-old C57BL/6 mice were anesthetized with an intraperitoneal injection of a mixture of ketamine (100 mg/kg) and xylazine (5 mg/kg), and a mydriatic agent was applied to dilate the pupils of the eyes. Thereafter, an application of transpupillary thermotherapy (TTT), 200 spot size, 50-mW power, and 30-sec duration, was performed over the optic disc of an eye. The aiming beam of the laser was focused on the centre of the optic disc, a viscoelastic material was instilled, a cover glass was placed, and laser beams were irradiated while confirming the optic disc through the dilated pupils by naked eyes. The thus-established optic nerve injury model will be hereinafter referred to as a TTT laser model. […]
Twenty-four hours after labeling, the animals were euthanized and the eyes were enucleated and fixed for 2 hours with neutral formalin. […] Under a fluorescence microscope (×400), the fluorescently labeled retinal ganglion cells were counted in 12 regions in the four quadrants of each retina approximately 0.5 mm, 1 mm and 1.5 mm from the edge of the optic disc. […]

In assay [2] the test system is axons of the optic nerve. The assay can be described thus: Axonal viability (Bodian staining) in TTT laser optic nerve injury (glaucoma) model. It counts as in vivo, C57BL/6 mice. To be noted: TTT laser model mice, rodent chow containing 50 mg/kg; day 14 after laser irradiation; FIG. 2. As for the experimental part:
as §1, §2
The retinal cross-section and the optic nerve cross-section were treated with a silver solution for 48 hours, and color development was carried out using a reducing agent, followed by toning and fixation. […] In order to evaluate the axonal viability, the stained axons were counted with a light microscope (×1000), in 20 regions at intervals of 10 in the four quadrants of each retina, from the center of the optic nerve tissue section slide. […]

With `CC1(C)CCC2=C(O1)c1ccccc1C(=O)C2=O` [Compound 1, β-lapachone], the “density of retinal ganglion cells relative to the TTT control group (Group 2)” value in assay [1] is at least 1.7 fold. Further, the “axonal density relative to the TTT control group (Group 2)” value in assay [2] is on record as at least 1.5 fold.
